Source: patent publication US9283280B2, “Compositions for drug administration” (Aegis Therapeutics, LLC, priority 2008, dated 2016)

Assays:
[1] = system: blood D-glucose; experiment: Insulin eye drops with absorption enhancer in xylazine/ketamine-anesthetized hyperglycemic rats, blood D-glucose; type: in vivo, rat; details: for absorption enhancing activity by alkyl chain length: ocular insulin, concentration not given
[2] = Intranasal triptans with alkylsaccharide in rats, plasma levels by HPLC; type: in vivo;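 further: rats in groups of eight given 20 µL into one nostril, dose expressed as triptan free base, Cmax and Tmax read from plasma concentration–time curves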
Experimental: Each set of drug solutions is administered to six groups of eight rats each by 20 uL instillation to a single nare of each animal. […] After the last blood sample is collected each animal is cuthanizcd with CO2. After blood collection, plasma is immediately prepared from each blood sample using lithium/heparin as the anticoagulant. Plasma samples are stored at −70° C. until analyzed. […] The observed Tmax values from each plot is determined by inspection of the concentration vs time plots and recorded as shown in Table XII. The doses designated in this table reflect amounts of triptan free base in each case.

[3] = system: blood D-glucose; experiment: Glucagon eye drops with surfactant in rats, elevation of blood D-glucose; details: for glucagon absorption / blood D-glucose values: eye drops surfactant plus glucagon in rats previously treated with surfactant plus insulin eye drops; for Blood Glucose Concentration: glucagon eye drops + 0.5% surfactant added after 120 min
Experimental: Glucagon absorption from the eye was measured in rats given eye drops containing various surfactants plus glucagon (30 μg) (Eli Lilly, Indianapolis, Ind.) by monitoring an elevation in blood D-glucose levels. In these experiments, rats were anesthetized with sodium pentobarbital rather than xylazine/ketamin.
Paired animals that receive eye drops containing the surfactant alone, or glucagon alone, were compared to animals receiving eye drops with the surfactant plus glucagon.

[4] = 0.5% surfactant, time −10 min, before insulin eye drops
[5] = 0.5% surfactant, time −20 min, before insulin eye drops
[6] = insulin eye drops + 0.5% surfactant, time 0 min
[7] = insulin eye drops + 0.5% surfactant, time 10 min
[8] = insulin eye drops + 0.5% surfactant, time 20 min
[9] = insulin eye drops + 0.5% surfactant, time 30 min
[10] = insulin eye drops + 0.5% surfactant, time 40 min
[11] = insulin eye drops + 0.5% surfactant, time 50 min
[12] = insulin eye drops + 0.5% surfactant, time 60 min
[13] = insulin eye drops + 0.5% surfactant, time 70 min
[14] = insulin eye drops + 0.5% surfactant, time 80 min
[15] = insulin eye drops + 0.5% surfactant, time 90 min
[16] = insulin eye drops + 0.5% surfactant, time 100 min
[17] = insulin eye drops + 0.5% surfactant, time 110 min
[18] = insulin eye drops + 0.5% surfactant, time 120 min
[19] = Naratriptan 0.22 mg/kg intranasal, alkylsaccharide 0.02%
[20] = Naratriptan 0.22 mg/kg intranasal, alkylsaccharide 0.05%
[21] = Naratriptan 0.22 mg/kg intranasal, alkylsaccharide 0.1%
[22] = Naratriptan 0.22 mg/kg intranasal, alkylsaccharide 0.5%
[23] = Naratriptan 0.22 mg/kg intranasal, alkylsaccharide 2%
[24] = Rizatriptan […] intranasal, alkylsaccharide 0.02%
[25] = Rizatriptan […] intranasal, alkylsaccharide 0.05%
[26] = Rizatriptan […] intranasal, alkylsaccharide 0.1%
[27] = Rizatriptan […] intranasal, alkylsaccharide 0.5%
[28] = Rizatriptan […] intranasal, alkylsaccharide 2%
[29] = Sumatriptan 6.2 mg/kg intranasal, alkylsaccharide 0.02%
[30] = Sumatriptan 6.2 mg/kg intranasal, alkylsaccharide 0.05%
[31] = Sumatriptan 6.2 mg/kg intranasal, alkylsaccharide 0.1%
[32] = Sumatriptan 6.2 mg/kg intranasal, alkylsaccharide 0.5%
[33] = Sumatriptan 6.2 mg/kg intranasal, alkylsaccharide 2%
[34] = eye drops 0.2% insulin + 0.5% enhancer
[35] = insulin eye drops + 0.5% alkylglucoside

## dodecylsucrose [dodecyl sucrose]
[1]; [4]
  Blood Glucose Concentration: 305 mg/dL
[1]; [5]
  Blood Glucose Concentration: 266 mg/dL
[1]; [6]
  Blood Glucose Concentration: 351 mg/dL
[1]; [7]
  Blood Glucose Concentration: 347 mg/dL
[1]; [8]
  Blood Glucose Concentration: 252 mg/dL
[1]; [9]
  Blood Glucose Concentration: 161 mg/dL
[1]; [10]
  Blood Glucose Concentration: 120 mg/dL
[1]; [11]
  Blood Glucose Concentration: 105 mg/dL
[1]; [12]
  Blood Glucose Concentration: 114 mg/dL
[1]; [13]
  Blood Glucose Concentration: 113 mg/dL
[1]; [14]
  Blood Glucose Concentration: 104 mg/dL
[1]; [15]
  Blood Glucose Concentration: 86 mg/dL
[1]; [16]
  Blood Glucose Concentration: 113 mg/dL
[1]; [17]
  Blood Glucose Concentration: 107 mg/dL
[1]; [18]
  Blood Glucose Concentration: 112 mg/dL
[1]; insulin eye drops + […] alkyl saccharide, time 0 min
  blood glucose level: 335 mg/dL
[1]; insulin eye drops + […] alkyl saccharide, time 120 min
  blood glucose level: 150 mg/dL
[2]; [19]
  Tmax: ~60 min
[2]; [20]
  Tmax: ~5 to 15 min
[2]; [21]
  Tmax: ~5 to 15 min
[2]; [22]
  Tmax: ~5 to 15 min
[2]; [23]
  Tmax: ~5 to 15 min
[2]; [24]
  Tmax: ~60 min
[2]; [25]
  Tmax: ~5 to 15 min
[2]; [26]
  Tmax: ~5 to 15 min
[2]; [27]
  Tmax: ~5 to 15 min
[2]; [28]
  Tmax: ~5 to 15 min
[2]; [29]
  Tmax: ~60 min
[2]; [30]
  Tmax: ~5 to 15 min
[2]; [31]
  Tmax: ~5 to 15 min
[2]; [32]
  Tmax: ~5 to 15 min
[2]; [33]
  Tmax: ~5 to 15 min

## CCCCCCCCCCCCCO[C@@H]1O[C@H](CO)[C@@H](O[C@H]2O[C@H](CO)[C@@H](O)[C@H](O)[C@H]2O)[C@H](O)[C@H]1O [tridecyl maltoside, tridecyl-β-D-maltoside]
[1]; [4]
  Blood Glucose Concentration: 307 mg/dL
[1]; [5]
  Blood Glucose Concentration: 255 mg/dL
[1]; [34]
  hypoglycemic effect / insulin absorption enhancement: effective
[1]; eye drops 0.2% insulin + […] enhancer
  hypoglycemic effect / insulin absorption enhancement: sustained for the two hour time course
[1]; [6]
  Blood Glucose Concentration: 323 mg/dL
[1]; [7]
  Blood Glucose Concentration: 309 mg/dL
[1]; [8]
  Blood Glucose Concentration: 217 mg/dL
[1]; [9]
  Blood Glucose Concentration: 131 mg/dL
[1]; [10]
  Blood Glucose Concentration: 100 mg/dL
[1]; [11]
  Blood Glucose Concentration: 87 mg/dL
[1]; [12]
  Blood Glucose Concentration: 107 mg/dL
[1]; [13]
  Blood Glucose Concentration: 115 mg/dL
[1]; [14]
  Blood Glucose Concentration: 79 mg/dL
[1]; [15]
  Blood Glucose Concentration: 85 mg/dL
[1]; [16]
  Blood Glucose Concentration: 76 mg/dL
[1]; [17]
  Blood Glucose Concentration: 74 mg/dL
[1]; [18]
  Blood Glucose Concentration: 75 mg/dL
[2]; [19]
  Ratio Cmax(alkylsacch)/Cmax(No alkylsacch): ≦1.5
  Tmax: ~60 min
[2]; [20]
  Ratio Cmax(alkylsacch)/Cmax(No alkylsacch): ≧1.5
  Tmax: ~5 to 15 min
[2]; [21]
  Ratio Cmax(alkylsacch)/Cmax(No alkylsacch): ≧1.5
  Tmax: ~5 to 15 min
[2]; [22]
  Ratio Cmax(alkylsacch)/Cmax(No alkylsacch): ≧1.5
  Tmax: ~5 to 15 min
[2]; [23]
  Ratio Cmax(alkylsacch)/Cmax(No alkylsacch): ≧1.5
  Tmax: ~5 to 15 min
[2]; [24]
  Tmax: ~60 min
[2]; [25]
  Tmax: ~5 to 15 min
[2]; [26]
  Tmax: ~5 to 15 min
[2]; [27]
  Tmax: ~5 to 15 min
[2]; [28]
  Tmax: ~5 to 15 min
[2]; [29]
  Ratio Cmax(alkylsacch)/Cmax(No alkylsacch): ≦1.5
  Tmax: ~60 min
[2]; [30]
  Ratio Cmax(alkylsacch)/Cmax(No alkylsacch): ≧1.5
  Tmax: ~5 to 15 min
[2]; [31]
  Ratio Cmax(alkylsacch)/Cmax(No alkylsacch): ≧1.5
  Tmax: ~5 to 15 min
[2]; [32]
  Ratio Cmax(alkylsacch)/Cmax(No alkylsacch): ≧1.5
  Tmax: ~5 to 15 min
[2]; [33]
  Ratio Cmax(alkylsacch)/Cmax(No alkylsacch): ≧1.5
  Tmax: ~5 to 15 min
[3]
  glucagon absorption / blood D-glucose values: increase significantly
[3]; time 130 min
  Blood Glucose Concentration: 82 mg/dL
[3]; time 140 min
  Blood Glucose Concentration: 121 mg/dL
[3]; time 150 min
  Blood Glucose Concentration: 148 mg/dL
[3]; time 160 min
  Blood Glucose Concentration: 173 mg/dL
[3]; time 170 min
  Blood Glucose Concentration: 162 mg/dL
[3]; time 180 min
  Blood Glucose Concentration: 162 mg/dL
[3]; time 190 min
  Blood Glucose Concentration: 156 mg/dL

## decylsucrose
[1]; [34]
  hypoglycemic effect / insulin absorption enhancement: effective in reducing blood glucose levels
[1]; insulin eye drops + 0.5% alkyl saccharide, time 0 min
  blood glucose level: 313 mg/dL
[1]; insulin eye drops + 0.5% alkyl saccharide, time 120 min
  blood glucose level: 164 mg/dL

## CCCCCCCCO[C@@H]1O[C@H](CO)[C@@H](O[C@H]2O[C@H](CO)[C@@H](O)[C@H](O)[C@H]2O)[C@H](O)[C@H]1O [octyl maltoside, Octyl-β-D-maltoside]
[1]
  absorption enhancing activity by alkyl chain length: no
[2]; [19]
  Ratio Cmax(alkylsacch)/Cmax(No alkylsacch): ≦1.5
  Tmax: ~60 to 120 min
[2]; [20]
  Ratio Cmax(alkylsacch)/Cmax(No alkylsacch): ≦1.5
  Tmax: ~60 to 120 min
[2]; [21]
  Ratio Cmax(alkylsacch)/Cmax(No alkylsacch): ≦1.5
  Tmax: ~60 to 120 min
[2]; [22]
  Ratio Cmax(alkylsacch)/Cmax(No alkylsacch): ≦1.5
  Tmax: ~60 to 120 min
[2]; [23]
  Ratio Cmax(alkylsacch)/Cmax(No alkylsacch): ≦1.5
  Tmax: ~60 to 120 min
[2]; [24]
  Tmax: ~60 to 120 min
[2]; [25]
  Tmax: ~60 to 120 min
[2]; [26]
  Tmax: ~60 to 120 min
[2]; [27]
  Tmax: ~60 to 120 min
[2]; [28]
  Tmax: ~60 to 120 min
[2]; [29]
  Ratio Cmax(alkylsacch)/Cmax(No alkylsacch): ≦1.5
  Tmax: ~60 to 120 min
[2]; [30]
  Ratio Cmax(alkylsacch)/Cmax(No alkylsacch): ≦1.5
  Tmax: ~60 to 120 min
[2]; [31]
  Ratio Cmax(alkylsacch)/Cmax(No alkylsacch): ≦1.5
  Tmax: ~60 to 120 min
[2]; [32]
  Ratio Cmax(alkylsacch)/Cmax(No alkylsacch): ≦1.5
  Tmax: ~60 to 120 min
[2]; [33]
  Ratio Cmax(alkylsacch)/Cmax(No alkylsacch): ≦1.5
  Tmax: ~60 to 120 min

## CCCCCCCCCCO[C@@H]1O[C@H](CO)[C@@H](O[C@H]2O[C@H](CO)[C@@H](O)[C@H](O)[C@H]2O)[C@H](O)[C@H]1O [decyl maltoside, decyl-β-D-maltoside]
[1]; [4]
  Blood Glucose Concentration: 287 mg/dL
[1]; [5]
  Blood Glucose Concentration: 249 mg/dL
[1]; [34]
  hypoglycemic effect / insulin absorption enhancement: prompt and sustained fall in blood glucose levels
[1]; [6]
  Blood Glucose Concentration: 337 mg/dL
[1]; [7]
  Blood Glucose Concentration: 304 mg/dL
[1]; [8]
  Blood Glucose Concentration: 292 mg/dL
[1]; [9]
  Blood Glucose Concentration: 221 mg/dL
[1]; [10]
  Blood Glucose Concentration: 164 mg/dL
[1]; [11]
  Blood Glucose Concentration: 138 mg/dL
[1]; [12]
  Blood Glucose Concentration: 114 mg/dL
[1]; [13]
  Blood Glucose Concentration: 104 mg/dL
[1]; [14]
  Blood Glucose Concentration: 110 mg/dL
[1]; [15]
  Blood Glucose Concentration: 120 mg/dL
[1]; [16]
  Blood Glucose Concentration: 92 mg/dL
[1]; [17]
  Blood Glucose Concentration: 81 mg/dL
[1]; [18]
  Blood Glucose Concentration: 87 mg/dL
[1]
  absorption enhancing activity by alkyl chain length: less absorption enhancing activity
[2]; [19]
  Ratio Cmax(alkylsacch)/Cmax(No alkylsacch): ≦1.5
  Tmax: ~60 to 120 min
[2]; [20]
  Ratio Cmax(alkylsacch)/Cmax(No alkylsacch): ≦1.5
  Tmax: ~60 to 120 min
[2]; [21]
  Ratio Cmax(alkylsacch)/Cmax(No alkylsacch): ≧1.5
  Tmax: ~60 to 120 min
[2]; [22]
  Ratio Cmax(alkylsacch)/Cmax(No alkylsacch): ≧1.5
  Tmax: ~5 to 15 min
[2]; [23]
  Ratio Cmax(alkylsacch)/Cmax(No alkylsacch): ≧1.5
  Tmax: ~5 to 15 min
[2]; [24]
  Tmax: ~60 to 120 min
[2]; [25]
  Tmax: ~60 to 120 min
[2]; [26]
  Tmax: ~60 to 120 min
[2]; [27]
  Tmax: ~5 to 15 min
[2]; [28]
  Tmax: ~5 to 15 min
[2]; [29]
  Ratio Cmax(alkylsacch)/Cmax(No alkylsacch): ≦1.5
  Tmax: ~60 to 120 min
[2]; [30]
  Ratio Cmax(alkylsacch)/Cmax(No alkylsacch): ≦1.5
  Tmax: ~60 to 120 min
[2]; [31]
  Ratio Cmax(alkylsacch)/Cmax(No alkylsacch): ≧1.5
  Tmax: ~60 to 120 min
[2]; [32]
  Ratio Cmax(alkylsacch)/Cmax(No alkylsacch): ≧1.5
  Tmax: ~5 to 15 min
[2]; [33]
  Ratio Cmax(alkylsacch)/Cmax(No alkylsacch): ≧1.5
  Tmax: ~5 to 15 min
[3]
  glucagon absorption / blood D-glucose values: increase significantly
[3]; time 130 min
  Blood Glucose Concentration: 95 mg/dL
[3]; time 140 min
  Blood Glucose Concentration: 99 mg/dL
[3]; time 150 min
  Blood Glucose Concentration: 132 mg/dL
[3]; time 160 min
  Blood Glucose Concentration: 157 mg/dL
[3]; time 170 min
  Blood Glucose Concentration: 171 mg/dL
[3]; time 180 min
  Blood Glucose Concentration: 180 mg/dL
[3]; time 190 min
  Blood Glucose Concentration: 189 mg/dL

## CCCCCCCOC1O[C@H](CO)[C@@H](O)[C@H](O)[C@H]1O (stereo partly shown) [heptylglucoside, heptylglucopyranoside]
[1]; [34]
  hypoglycemic effect / insulin absorption enhancement: ineffective

## CCCCCCCCCOC1O[C@H](CO)[C@@H](O)[C@H](O)[C@H]1O (stereo partly shown) [nonylglucoside, nonylglucopyranoside]
[1]; [34]
  hypoglycemic effect / insulin absorption enhancement: effectively stimulated insulin absorption
[1]; [35]
  blood glucose level, initial (from): 297 mg/dL
  blood glucose level, reduced (to): 150 mg/dL

## CCCCCCOC1O[C@H](CO)[C@@H](O)[C@H](O)[C@H]1O (stereo partly shown) [hexylglucoside, Hexylglucopyranoside]
[1]; [34]
  hypoglycemic effect / insulin absorption enhancement: ineffective
